Results from patent US9834514B2, “Antibiotic sensitivity-restoring and photosensitive agents” (New Mexico Tech Research Foundation, priority 2015, dated 2017).

System: HeLa cells
Test: Compound 1 in DMSO versus liposomes on HeLa cells with light (MTT)
Format: cell-based
Details: 1 μM; for Compound 1 pre-incubation to max killing: in the dark
Method: An effective period of pre-incubation with the drug in the dark was determined to be about 28 hours for compound 1 in DMSO and 60 hours for liposomal delivery of compound 1. The cells were then irradiated with continuous white light for 2 minutes at a distance of 6.5 cm using a LumaCare™ light source. An MTT assay was carried out to evaluate cell viability 48 hours later.

## Clc1ccc(/C=C/c2[nH]c3ccccc3c2/C=C/c2ccc(Cl)cc2)cc1 [Compound 1]
  Compound 1 (no light), killing: 6% killing
  Compound 1 pre-incubation to max killing: 28 h
Continuous white light 2 minutes, MTT 48 hours later
  Compound 1 + light, killing: 77% killing
Listed as compound 1
  Compound 1 pre-incubation to max killing: about 28 hours
